Laboratory results: ChEMBL document CHEMBL2074402, “Expression of multidrug resistance-associated protein in NIH/3T3 cells confers multidrug resistance associated with increased drug efflux and altered intracellular drug distribution” (Cancer Res, 1995)
Numbered stars: 1 amine (or outer) side, 2 acyl side, 3 side chain; on linkers, the order of the positions; unused ones are H or OH. Bridge positions count the residues as written; N and C are the ends. Square brackets hold non-standard residues; d marks the D form. Peptide text beside a SMILES is read from it. I, II: the chains in the order shown. Actinocin(9to1) = Cc1c2oc3c(C)ccc(C(=O)[*:1])c3nc-2c(C(=O)[*:2])c(N)c1=O; NMeV = CN[C@H](C(=O)O)C(C)C; Sar = CNCC(=O)O

Target: Multidrug resistance-associated protein 1 (Homo sapiens, UniProt P33527)
Test: TP_TRANSPORTER: drug sensitivity in MRP1-expressing NIH/3T3 cells
Format: functional, cell-based
Conditions: mouse, nih3t3

Multidrug resistance-associated protein 1, sequence (P33527 whole entry): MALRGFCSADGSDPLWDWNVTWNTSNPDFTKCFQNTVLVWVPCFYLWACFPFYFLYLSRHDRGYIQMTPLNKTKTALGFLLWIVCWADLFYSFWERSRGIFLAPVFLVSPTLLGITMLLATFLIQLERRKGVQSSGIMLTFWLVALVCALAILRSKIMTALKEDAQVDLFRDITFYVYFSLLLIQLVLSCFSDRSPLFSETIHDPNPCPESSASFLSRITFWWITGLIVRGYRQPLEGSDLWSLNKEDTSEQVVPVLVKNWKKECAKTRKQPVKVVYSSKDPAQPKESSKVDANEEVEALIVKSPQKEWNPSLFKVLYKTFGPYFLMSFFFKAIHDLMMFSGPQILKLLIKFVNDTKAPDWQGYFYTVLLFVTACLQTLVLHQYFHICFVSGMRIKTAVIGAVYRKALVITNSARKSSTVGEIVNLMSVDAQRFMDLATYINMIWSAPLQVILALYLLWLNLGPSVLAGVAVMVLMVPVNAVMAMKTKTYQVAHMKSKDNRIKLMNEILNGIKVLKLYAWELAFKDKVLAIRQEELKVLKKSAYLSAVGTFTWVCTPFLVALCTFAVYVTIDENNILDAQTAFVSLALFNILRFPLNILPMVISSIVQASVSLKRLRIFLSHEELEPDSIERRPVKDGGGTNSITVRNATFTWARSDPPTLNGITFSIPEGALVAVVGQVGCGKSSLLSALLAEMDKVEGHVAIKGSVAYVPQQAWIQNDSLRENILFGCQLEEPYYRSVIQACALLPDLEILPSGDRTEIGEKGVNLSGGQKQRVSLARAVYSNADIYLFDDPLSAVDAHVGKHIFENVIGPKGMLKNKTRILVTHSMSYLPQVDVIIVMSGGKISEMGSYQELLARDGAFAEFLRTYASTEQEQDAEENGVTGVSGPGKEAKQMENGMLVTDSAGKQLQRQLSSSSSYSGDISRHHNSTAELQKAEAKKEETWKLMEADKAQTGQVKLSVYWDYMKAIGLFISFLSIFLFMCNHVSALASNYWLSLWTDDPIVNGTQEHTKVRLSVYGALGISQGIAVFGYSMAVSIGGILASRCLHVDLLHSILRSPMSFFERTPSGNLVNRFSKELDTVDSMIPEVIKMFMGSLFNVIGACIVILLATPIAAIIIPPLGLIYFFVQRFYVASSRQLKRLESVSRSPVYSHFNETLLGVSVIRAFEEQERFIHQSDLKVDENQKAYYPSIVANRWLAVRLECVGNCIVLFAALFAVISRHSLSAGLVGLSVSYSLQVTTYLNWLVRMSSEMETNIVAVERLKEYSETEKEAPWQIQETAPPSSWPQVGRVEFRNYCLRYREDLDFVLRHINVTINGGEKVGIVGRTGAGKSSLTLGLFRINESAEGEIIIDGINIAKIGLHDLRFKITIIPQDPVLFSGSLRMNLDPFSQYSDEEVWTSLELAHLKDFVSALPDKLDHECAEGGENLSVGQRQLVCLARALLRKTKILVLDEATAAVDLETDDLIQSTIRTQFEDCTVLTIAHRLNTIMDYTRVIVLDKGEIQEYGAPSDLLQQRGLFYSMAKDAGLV

Cc1c2oc3c(C)ccc(C(=O)N[C@@H]4C(=O)N[C@H](C(C)C)C(=O)N5CCC[C@H]5C(=O)N(C)CC(=O)N(C)[C@@H](C(C)C)C(=O)O[C@@H]4C)c3nc-2c(C(=O)N[C@@H]2C(=O)N[C@H](C(C)C)C(=O)N3CCC[C@H]3C(=O)N(C)CC(=O)N(C)[C@@H](C(C)C)C(=O)O[C@@H]2C)c(N)c1=O [DACTINOMYCIN] (I: T[dV]P[Sar][NMeV] / II: T[dV]P[Sar][NMeV]; ester I:1-I:C, II:1-II:C; linker I:N-II:N via Actinocin(9to1))
Activity: substrate [+]
